Assay type in all cases: in vitro ADME
A short description of series [1]: Prediction of in vivo hepatic clearance in rat from RLM kinetics. The source says: The following equations were utilized to predict the in vivo hepatic clearance of kurarinone in humans and rats.(1) CLint in vitro=Vmax/Km, (2) […], (3) CLH=QH·fu·CLint in/QH+fu·CLint in vivo, where the SF (scaling factor) represents the milligrams of microsomal protein per gram of the liver multiplied by the grams of liver weight; CLint is the intrinsic metabolic clearance; CLH is hepatic clearance; fu is the free fraction in the blood (no data were available for kurarinone; thus, fu was arbitrarily proposed to be 1); and QH is the hepatic blood flow. The CLH of kurarinone was calculated using equations (1)–(3).

The test system of series [2] is minipig liver microsomes (PLMs). Description: Enzyme kinetics of P1 formation from kurarinone in PLMs. The method, then:
Samples were prepared in a total volume of 200 μL, containing 0.3 mg/mL protein in human liver microsomes or 15 nM protein in recombinant human supersomes, probe substrates or 50 μM kurarinone, 10 mM MgCl2, 10 mM glucose-6-phosphate, and 1 unit/mL of glucose-6-phosphate dehydrogenase. The reactions were activated by adding NADPH following preincubation at 37°C for 5 min. The reactions were maintained at 37°C for 1 h and terminated by adding 200 μL ice-cold acetonitrile. The supernatant (10 μL) collected from the samples that were centrifuged (20,000 g, 20 min, 4°C) was injected into the HPLC system for analysis. Control incubations devoid of NADPH or kurarinone were performed parallelly to ensure that the produced metabolites were NADPH- or kurarinone-dependent.
Various concentrations of kurarinone (1–200 μM) were incubated with RLMs, MLMs, PLMs, RAMs, CYP1A2, and CYP2D6 to estimate kinetic parameters. The rest of the other conditions remained the same as described in Section 2.3. […] The apparent Km and Vmax values were calculated from nonlinear regression analysis of experimental data according to the Michaelis–Menten equation, and the results were represented graphically by Eadie–Hofstee plots. All incubations were carried out as triplicate independent experiments, and kinetic constants were recorded as mean ± SD.

The target of the next series is T1, UGT1A1 (Homo sapiens, UniProt P22309).
T1 construct: purchased BD Gentest Corp. (Woburn, MA, USA)
T1 sequence (P22309 26-533): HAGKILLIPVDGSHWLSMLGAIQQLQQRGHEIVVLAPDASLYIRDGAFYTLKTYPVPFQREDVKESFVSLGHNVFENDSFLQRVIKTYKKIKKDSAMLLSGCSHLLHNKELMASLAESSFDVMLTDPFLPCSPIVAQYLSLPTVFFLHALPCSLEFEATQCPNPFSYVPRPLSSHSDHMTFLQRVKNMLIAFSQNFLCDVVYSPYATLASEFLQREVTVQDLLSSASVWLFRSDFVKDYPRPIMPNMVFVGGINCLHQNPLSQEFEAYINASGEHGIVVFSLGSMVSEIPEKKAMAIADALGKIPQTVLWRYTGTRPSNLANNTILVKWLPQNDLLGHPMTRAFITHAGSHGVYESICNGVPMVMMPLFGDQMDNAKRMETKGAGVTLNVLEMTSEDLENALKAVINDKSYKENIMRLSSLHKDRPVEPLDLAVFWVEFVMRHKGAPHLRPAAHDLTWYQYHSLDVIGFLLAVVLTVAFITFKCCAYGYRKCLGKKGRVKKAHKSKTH
Nature of the series: Inhibition of recombinant UGT1A1-catalyzed 4-MU glucuronidation. The protocol:
4-MU, a nonspecific probe substrate for UGT isoforms, was used to explore the inhibition of UGT isoforms by kurarinone. The mixture (200 μL total volume) contained recombinant UGTs (final concentrations: 0.125, 0.05, 0.025, 0.05, 0.025, 0.05, 0.05, 0.25, 0.05, and 0.2 mg/mL for UGT1A1, UGT1A3, UGT1A6, UGT1A7, UGT1A8, UGT1A9, UGT1A10, UGT2B4, UGT2B7, and UGT2B15, respectively), 5 mM UDPGA, 5 mM MgCl2, 50 mM Tris-HCl buffer (pH 7.4), and 4-MU in the absence or presence of various concentrations of kurarinone. The concentrations of 4-MU were as follows: 110 μM for UGT1A1 and UGT1A6, 1200 μM for UGT1A3 and UGT2B4, 15 μM for UGT1A7, 750 μM for UGT1A8, 30 μM for UGT1A9, 80 μM for UGT1A10, 350 μM for UGT2B7, 250 μM for UGT2B15, and 2000 μM for UGT2B17. Kurarinone was dissolved in methanol, and the final concentration of methanol was 0.5% (v/v). Reactions were initiated by adding UDPGA, and incubations were carried out at 37°C in a shaking waterbath for 60 min. The reactions were terminated by addition of 200 μL of ice-cold acetonitrile containing 7-hydroxycoumarin (100 μM) as the internal standard. The incubation mixture was then centrifuged at 20,000 ×g for 20 min to obtain the supernatant, and an aliquot of supernatant (20 μL) was transferred to an autoinjector vial for HPLC analysis.

Consider `C=C(C)[C@H](CC=C(C)C)Cc1c(O)cc(OC)c2c1O[C@H](c1ccc(O)cc1O)CC2=O` [Kurarinone], for which the “percentage of CLH versus hepatic blood flow (QH)” value in series [1] (rat) is 83.35%. Besides, in series [1] (rats, from RLM kinetic parameters of P1, fu assumed 1), the “predicted hepatic clearance CLH” value was 46.01 mL/min/kg body weight. Moreover, the “Vmax of P1 formation” value in series [2] was determined as 8.46 ± 0.74 nmol·min^−1·mg^−1 protein. Besides, the Km in series [2] (kurarinone 1–200 μM) was 49.9 ± 7.91 µM. The “inhibition type against UGT1A1” value on UGT1A1 (Dixon and Lineweaver–Burk plots) is on record as “noncompetitive”. The inhibition at 60 min, 100 μM on UGT1A1 (human, recombinant UGT1A1, pH 7.4, probe 4-MU (110 μM), 100 μM kurarinone, 4-MU glucuronidation, recombinant UGT) is greater than 90%. At UGT1A1 (recombinant UGT1A1, 4-MU glucuronidation, read-out: IC50 against UGT1A1), the IC50 turned out to be 13.6 µM. Further, the Ki on UGT1A1 (second plot of slopes from Lineweaver–Burk plots) turned out to be 13 µM.

In general, Km refers to the concentration of substrate that gives half-maximal velocity. The inhibition is how much of the control response was suppressed. The term IC50 denotes the midpoint of a concentration-inhibition curve. What is called Ki is the dissociation constant of the complex between target and ligand, obtained from inhibition or displacement.

Source of the values: article PMC7509555, “An In Vitro Study for Evaluating Permeability and Metabolism of Kurarinone” (Evidence-based Complementary and Alternative Medicine : eCAM, 2020).
